The record followed here is patent US11407767B2, “Heterocyclyl substituted pyrrolopyridines that are inhibitors of the CDK12 kinase” (The University of Nottingham, priority 2017, dated 2022).

Counter-ions that a name gives are not always drawn.

Test [1] concerns the target CDK12/CycK (Homo sapiens, UniProt Q9NYV4). Briefly: Inhibition of CDK12 (ADP-Glo kinase assay). The test is classed as biochemical. The following applies: 60 nM CDK12/CycK, 30 minutes pre-incubation, 1 μM ATP, 0.5 μM RBER-IRStide substrate, 1 h at 25° C., read-out: CDK12/cyclin K IC50. In a few lines: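 ADP-Glo luminescence read after a 1 h, 25 °C reaction with 1 μM ATP and 0.5 μM RBER-IRStide peptide. Enzyme (60 nM) and compound were first pre-incubated 30 min; buffer 50 mM HEPES pH 7.5, 20 mM MgCl2, 3 mM MnCl2, 1% DMSO. IC50 fitted after blank subtraction.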
On the technique in general: In ADP-Glo the light output rises with the ADP produced.

In test [2] the test system is DM1 fibroblasts. Briefly: Nuclear foci assay. As to conditions: Fibroblast; DM1 fibroblasts treated for 24 hours, 11 point dilution 20 μM-19 nM, in situ hybridisation with cy3 labelled CAG10 probe. The test is classed as cell-based. How it is done:
DM1 fibroblasts were treated with compounds in an 11 point dilution series from 20 μM-19 nM for 24 hours. Following treatment, fluorescent in situ hybridisation was performed with a cy3 labelled CAG10 probe, to visualize nuclear foci and cells were analysed on a Molecular Devices plate reader with customised MetaExpress software (Ketley, A. et al. (2014). Hum Mol Genet, 23: 1551-1562). Compounds that reduced nuclear foci in a concentration dependent manner, compared to DMSO treated cells were identified.

Chain of CDK12/CycK (Q9NYV4 whole entry): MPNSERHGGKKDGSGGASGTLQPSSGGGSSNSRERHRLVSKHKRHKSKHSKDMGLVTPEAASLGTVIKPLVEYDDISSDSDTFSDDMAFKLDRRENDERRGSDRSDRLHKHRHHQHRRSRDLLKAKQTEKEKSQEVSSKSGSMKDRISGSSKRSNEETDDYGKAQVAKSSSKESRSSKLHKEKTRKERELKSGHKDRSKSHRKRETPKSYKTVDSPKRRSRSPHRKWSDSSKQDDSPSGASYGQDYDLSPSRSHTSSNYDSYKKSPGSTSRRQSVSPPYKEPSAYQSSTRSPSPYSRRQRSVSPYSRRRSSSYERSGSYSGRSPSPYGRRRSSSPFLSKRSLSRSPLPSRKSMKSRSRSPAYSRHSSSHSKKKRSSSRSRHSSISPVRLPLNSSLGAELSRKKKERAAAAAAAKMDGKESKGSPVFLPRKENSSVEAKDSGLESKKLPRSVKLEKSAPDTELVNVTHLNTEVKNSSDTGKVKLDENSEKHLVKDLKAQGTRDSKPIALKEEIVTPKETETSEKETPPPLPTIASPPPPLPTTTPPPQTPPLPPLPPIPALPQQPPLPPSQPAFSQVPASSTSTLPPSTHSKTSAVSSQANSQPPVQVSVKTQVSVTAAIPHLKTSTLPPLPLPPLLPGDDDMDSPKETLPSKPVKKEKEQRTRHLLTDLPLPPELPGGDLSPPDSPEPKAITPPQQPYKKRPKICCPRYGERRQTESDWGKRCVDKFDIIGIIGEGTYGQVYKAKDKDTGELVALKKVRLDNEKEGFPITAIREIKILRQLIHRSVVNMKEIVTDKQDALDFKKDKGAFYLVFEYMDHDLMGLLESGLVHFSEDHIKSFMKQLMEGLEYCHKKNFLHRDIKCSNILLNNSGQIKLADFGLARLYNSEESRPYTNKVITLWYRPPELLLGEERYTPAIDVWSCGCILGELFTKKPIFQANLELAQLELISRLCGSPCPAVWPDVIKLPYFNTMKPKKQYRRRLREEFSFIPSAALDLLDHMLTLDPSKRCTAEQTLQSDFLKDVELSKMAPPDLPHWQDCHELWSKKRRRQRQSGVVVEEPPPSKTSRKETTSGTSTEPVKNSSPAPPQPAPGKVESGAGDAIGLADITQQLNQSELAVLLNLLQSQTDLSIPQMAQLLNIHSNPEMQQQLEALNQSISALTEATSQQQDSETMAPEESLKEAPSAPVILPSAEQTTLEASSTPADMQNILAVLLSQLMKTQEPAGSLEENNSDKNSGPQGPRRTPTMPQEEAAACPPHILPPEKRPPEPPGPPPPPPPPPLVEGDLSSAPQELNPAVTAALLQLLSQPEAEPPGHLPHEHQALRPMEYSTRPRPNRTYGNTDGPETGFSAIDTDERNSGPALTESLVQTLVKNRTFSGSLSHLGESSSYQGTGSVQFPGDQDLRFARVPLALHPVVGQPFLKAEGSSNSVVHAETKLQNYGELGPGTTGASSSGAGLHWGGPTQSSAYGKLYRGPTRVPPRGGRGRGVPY
Chain of CDK12/CycK (O75909 whole entry partner): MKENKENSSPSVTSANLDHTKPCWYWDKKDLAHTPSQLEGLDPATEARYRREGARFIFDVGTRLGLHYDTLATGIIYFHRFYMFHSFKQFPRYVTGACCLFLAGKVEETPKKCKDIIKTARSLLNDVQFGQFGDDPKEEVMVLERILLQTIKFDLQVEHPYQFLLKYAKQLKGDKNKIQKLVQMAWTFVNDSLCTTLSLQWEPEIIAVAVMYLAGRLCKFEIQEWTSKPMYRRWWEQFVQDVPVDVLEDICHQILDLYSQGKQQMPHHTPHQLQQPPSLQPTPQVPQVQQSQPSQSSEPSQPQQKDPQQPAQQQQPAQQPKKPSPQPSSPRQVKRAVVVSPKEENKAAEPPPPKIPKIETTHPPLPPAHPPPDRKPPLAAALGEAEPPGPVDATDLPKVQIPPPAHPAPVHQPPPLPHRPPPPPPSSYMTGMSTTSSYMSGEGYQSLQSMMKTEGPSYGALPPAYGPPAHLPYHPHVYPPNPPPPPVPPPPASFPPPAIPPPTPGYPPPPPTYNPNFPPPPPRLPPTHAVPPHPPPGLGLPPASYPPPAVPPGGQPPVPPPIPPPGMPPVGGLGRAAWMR

In the case of `C=CC(=O)Nc1ccc(C(=O)N2CCC(c3cc4c(-c5cnn6ncccc56)ccnc4[nH]3)C2)cc1` (stereo not shown) [Example 126, N-(4-(3-(4-(Pyrazolo[1,5-b]pyridazin-3-yl)-1H-pyrrolo[2,3-b]pyridin-2-yl)pyrrolidine-1-carbonyl)phenyl)acrylamide], the values for the IC50 in test [1] and in test [2] were below 100 nM and below 1000 nM, respectively.

Consider `CN(C)C/C=C/C(=O)Nc1ccc(C(=O)N2CCC(c3cc4c(-c5cnn6ncccc56)ccnc4[nH]3)C2)cc1` (stereo not shown) [Example 127, (E)-4-(Dimethylamino)-N-(4-(3-(4-(pyrazolo[1,5-b]pyridazin-3-yl)-1H-pyrrolo[2,3-b]pyridin-2-yl)pyrrolidine-1-carbonyl)phenyl)but-2-enamide Formate Salt], for which the results for the IC50 in test [1] and in test [2] were below 100 nM and below 1000 nM, respectively.

As to `C=CC(=O)Nc1ccc(C(=O)N2CCC(c3cc4c(-c5c[nH]c6ccccc56)ccnc4[nH]3)C2)cc1` (stereo not shown) [Example 129, N-(4-(3-(4-(1H-Indol-3-yl)-1H-pyrrolo[2,3-b]pyridin-2-yl)pyrrolidine-1-carbonyl)phenyl)acrylamide], the values for the IC50 in test [1] and in test [2] were below 100 nM and 1000 to 10000 nM, respectively.

`C=CC(=O)Nc1cccc(C(=O)N2CCC(c3cc4c(-c5cnn6ncccc56)ccnc4[nH]3)C2)c1` (stereo not shown) [Example 141, N-(3-(3-(4-(Pyrazolo[1,5-b]pyridazin-3-yl)-1H-pyrrolo[2,3-b]pyridin-2-yl)pyrrolidine-1-carbonyl)phenyl)acrylamide]: the results for the IC50 in test [1] and in test [2] were below 100 nM and below 1000 nM, respectively.

Turning to `O=C(CCl)Nc1ccc(C(=O)N2CCC(c3cc4c(-c5cnn6ncccc56)ccnc4[nH]3)C2)cc1` (stereo not shown) [Example 144, 2-Chloro-N-(4-(3-(4-(pyrazolo[1,5-b]pyridazin-3-yl)-1H-pyrrolo[2,3-b]pyridin-2-yl)pyrrolidine-1-carbonyl)phenyl)acetamide], the IC50 in test [1] was below 100 nM; in test [2] it was below 1000 nM.

On to `O=C(CCl)Nc1cccc(C(=O)N2CCC(c3cc4c(-c5cnn6ncccc56)ccnc4[nH]3)C2)c1` (stereo not shown) [Example 145, 2-Chloro-N-(3-(3-(4-(pyrazolo[1,5-b]pyridazin-3-yl)-1H-pyrrolo[2,3-b]pyridin-2-yl)pyrrolidine-1-carbonyl)phenyl)acetamide], for which the results for the IC50 in test [1] and in test [2] were below 100 nM and below 1000 nM, respectively.

For the compound `C#CC(=O)Nc1cccc(C(=O)N2CCC(c3cc4c(-c5cnn6ncccc56)ccnc4[nH]3)C2)c1` (stereo not shown) [Example 146, N-(3-(3-(4-(Pyrazolo[1,5-b]pyridazin-3-yl)-1H-pyrrolo[2,3-b]pyridin-2-yl)pyrrolidine-1-carbonyl)phenyl)propiolamide], the IC50 is below 100 nM in test [1] and below 1000 nM in test [2].

With `C=CC(=O)Nc1cccc(C(=O)N2CC[C@H](c3cc4c(-c5cnn6ncccc56)ccnc4[nH]3)C2)c1` [Example 151, (S)—N-(3-(3-(4-(Pyrazolo[1,5-b]pyridazin-3-yl)-1H-pyrrolo[2,3-b]pyridin-2-yl)pyrrolidine-1-carbonyl)phenyl)acrylamide], the figures for the IC50 in test [1] and in test [2] were below 100 nM and below 1000 nM, respectively.

As for `O=C([C@H]1CCCN1C(=O)CCl)N1CCC(c2cc3c(-c4cnn5ncccc45)ccnc3[nH]2)C1` (stereo partly drawn) [Example 156, 2-Chloro-1-((2R)-2-(3-(4-(pyrazolo[1,5-b]pyridazin-3-yl)-1H-pyrrolo[2,3-b]pyridin-2-yl)pyrrolidine-1-carbonyl)pyrrolidin-1-yl)ethan-1-one], the IC50 in test [1] is below 100 nM; in test [2], below 1000 nM.

Regarding `O=C(CCl)Nc1cccc(C(=O)N2CC[C@@H](c3cc4c(-c5cnn6ncccc56)ccnc4[nH]3)C2)c1` [Example 159, (R)-2-Chloro-N-(3-(3-(4-(pyrazolo[1,5-b]pyridazin-3-yl)-1H-pyrrolo[2,3-b]pyridin-2-yl)pyrrolidine-1-carbonyl)phenyl)acetamide], the IC50 in test [1] was below 100 nM; in test [2], below 1000 nM.

For the compound `O=C(CCl)Nc1cccc(C(=O)N2CC[C@H](c3cc4c(-c5cnn6ncccc56)ccnc4[nH]3)C2)c1` [Example 160, (S)-2-Chloro-N-(3-(3-(4-(pyrazolo[1,5-b]pyridazin-3-yl)-1H-pyrrolo[2,3-b]pyridin-2-yl)pyrrolidine-1-carbonyl)phenyl)acetamide], the IC50 in test [1] was below 100 nM; in test [2], below 1000 nM.

`C=CC(=O)N1CCC[C@H]1C(=O)N1CC[C@@H](c2cc3c(-c4cnn5ncccc45)ccnc3[nH]2)C1` [Example 161, 1-((S)-2-((R)-3-(4-(Pyrazolo[1,5-b]pyridazin-3-yl)-1H-pyrrolo[2,3-b]pyridin-2-yl)pyrrolidine-1-carbonyl)pyrrolidin-1-yl)prop-2-en-1-one]: the IC50 in test [1] is 100 to 1000 nM; in test [2], below 1000 nM.

For the compound `CN(C)C/C=C/C(=O)Nc1cccc(C(=O)NCCc2cc3c(-c4cnn5ncccc45)ccnc3[nH]2)c1` [Example 200, (E)-3-(4-(Dimethylamino)but-2-enamido)-N-(2-(4-(pyrazolo[1,5-b]pyridazin-3-yl)-1H-pyrrolo[2,3-b]pyridin-2-yl)ethyl)benzamide], the IC50 is 100 to 1000 nM in test [1] and 10000 to 100000 nM in test [2].

As for `C=CC(=O)Nc1cc(C(=O)N2CCC(c3cc4c(-c5cnn6ncccc56)ccnc4[nH]3)C2)ccc1OC` (stereo not shown) [Example 204, N-(2-Methoxy-5-(3-(4-(pyrazolo[1,5-b]pyridazin-3-yl)-1H-pyrrolo[2,3-b]pyridin-2-yl)pyrrolidine-1-carbonyl)phenyl)acrylamide], the IC50 was below 100 nM in test [1] and below 1000 nM in test [2].

For `C=CC(=O)N1C[C@H](F)C[C@H]1C(=O)NCCc1cc2c(-c3cnn4ncccc34)ccnc2[nH]1` [Example 207, (2S,4R)-1-Acryloyl-4-fluoro-N-(2-(4-(pyrazolo[1,5-b]pyridazin-3-yl)-1H-pyrrolo[2,3-b]pyridin-2-yl)ethyl)pyrrolidine-2-carboxamide], the IC50 in test [1] was below 100 nM; in test [2], below 1000 nM.

Take `C=CC(=O)N1CC2(CC2)C[C@H]1C(=O)NCCc1cc2c(-c3cnn4ncccc34)ccnc2[nH]1` [Example 208, (S)-5-Acryloyl-N-(2-(4-(pyrazolo[1,5-b]pyridazin-3-yl)-1H-pyrrolo[2,3-b]pyridin-2-yl)ethyl)-5-azaspiro[2.4]heptane-6-carboxamide]: the IC50 is below 100 nM in test [1] and 1000 to 10000 nM in test [2].

For the compound `N#CN1CCC[C@H](C(=O)NCCc2cc3c(-c4cnn5ncccc45)ccnc3[nH]2)C1` [Example 210, (S)-1-cyano-N-(2-(4-(pyrazolo[1,5-b]pyridazin-3-yl)-1H-pyrrolo[2,3-b]pyridin-2-yl)ethyl)piperidine-3-carboxamide], the IC50 in test [1] was in the range of 100 to 1000 nM; in test [2], 1000 to 10000 nM.

As to `C=CC(=O)NC(Cc1ccccc1)C(=O)NCCc1cc2c(-c3cnn4ncccc34)ccnc2[nH]1` (stereo not shown) [Example 211, N-(1-Oxo-3-phenyl-1-((2-(4-(pyrazolo[1,5-b]pyridazin-3-yl)-1H-pyrrolo[2,3-b]pyridin-2-yl)ethyl)amino)propan-2-yl)acrylamide], the IC50 was 100 to 1000 nM in test [1] and 1000 to 10000 nM in test [2].

As to `C=CC(=O)NC(C)C(=O)NCCc1cc2c(-c3cnn4ncccc34)ccnc2[nH]1` (stereo not shown) [Example 212, N-(1-oxo-1-((2-(4-(pyrazolo[1,5-b]pyridazin-3-yl)-1H-pyrrolo[2,3-b]pyridin-2-yl)ethyl)amino)propan-2-yl)acrylamide], the results for the IC50 in test [1] and in test [2] were 100 to 1000 nM and 1000 to 10000 nM, respectively.

In the case of `C=CC(=O)N1CCC[C@H]1C(=O)OCCc1cc2c(-c3cnn4ncccc34)ccnc2[nH]1` [Example 213, 2-(4-(Pyrazolo[1,5-b]pyridazin-3-yl)-1H-pyrrolo[2,3-b]pyridin-2-yl)ethyl acryloyl-L-prolinate], the IC50 in test [1] is 100 to 1000 nM; in test [2], below 1000 nM.
